Results on 26 compounds are retold here after ChEMBL document CHEMBL4130365, “An overview of benzo[b]thiophene-based medicinal chemistry” (Eur J Med Chem, 2017).

Values after ≈ are worked out from the molar mass of the structure shown.

In assay [1] the target is T1, Peroxisome proliferator-activated receptor gamma (Homo sapiens) (UniProt P37231).
T1 sequence (whole entry): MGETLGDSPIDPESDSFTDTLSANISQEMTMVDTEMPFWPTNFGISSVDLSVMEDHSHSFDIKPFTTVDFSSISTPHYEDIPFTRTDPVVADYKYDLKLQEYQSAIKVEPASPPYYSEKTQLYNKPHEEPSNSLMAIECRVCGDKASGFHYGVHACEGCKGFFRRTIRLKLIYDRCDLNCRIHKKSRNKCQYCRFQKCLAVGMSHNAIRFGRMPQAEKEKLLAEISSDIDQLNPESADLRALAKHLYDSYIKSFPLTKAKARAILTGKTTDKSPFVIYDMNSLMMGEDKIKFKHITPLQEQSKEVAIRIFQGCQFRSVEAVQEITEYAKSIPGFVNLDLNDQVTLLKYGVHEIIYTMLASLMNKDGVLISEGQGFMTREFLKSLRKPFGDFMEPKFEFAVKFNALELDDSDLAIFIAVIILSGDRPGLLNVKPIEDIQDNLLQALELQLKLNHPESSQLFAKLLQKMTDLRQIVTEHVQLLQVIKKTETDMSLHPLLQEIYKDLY
Nature of the assay: Transactivation of GAL4 DBD-fused human PPARgamma LBD (174 to 475 residues) expressed in human HepG2 cells harboring pGL3-promoter-GAL4 at 28 uM after 24 hrs by luciferase reporter gene assay relative to control. Type of assay: cell-based. A general note: Reporter assays use an easily measured gene product as a stand-in for the process of interest.

Assay [2] relates to Staphylococcus aureus. Nature of the assay: Antibacterial activity against Staphylococcus aureus ATCC 25923 at 40 ug/ml after 48 hrs by filter paper disc method. In kind it is functional. The note with it: ATCC 25923, 48 h, read-out: IZ.
In assay [3] the test system is Mycobacterium tuberculosis. Kind of assay: Antimycobacterial activity against Mycobacterium tuberculosis. In kind it is functional.
Another assay has as its system NCI-H460. Nature of the assay: Growth inhibition of human NCI-H460 cells. In kind it is functional, cell-based.
A further assay deals with SF-268. Nature of the assay: Growth inhibition of human SF268 cells. In kind it is functional, cell-based.
For the next assay, the system named is MCF7. Nature of the assay: Growth inhibition of human MCF7 cells. Type of assay: functional, cell-based.
For another assay, the target named is Tubulin. Kind of assay: Inhibition of tubulin polymerization (unknown origin). In kind it is protein-complex assay, Homo sapiens.
Assay [4] has as its system Mycobacterium tuberculosis. Kind of assay: Growth inhibition of Mycobacterium tuberculosis relative to control. Type of assay: functional.
Another assay concerns Bacillus spizizenii. Nature of the assay: Antibacterial activity against Bacillus subtilis ATCC 6633 at 1000 ug/ml after 48 hrs by filter paper disc method. Type of assay: functional. The conditions noted are these: ATCC 6633, 48 h, read-out: IZ.
Assay [5] in a line: Antioxidant activity assessed as inhibition of ABTS radical formation relative to control. In kind it is functional. More on the design: concentration or dose not given beside the values. The note with it: dose or concentration not given here.
Assay [6] concerns Staphylococcus aureus. Kind of assay: Antibacterial activity against Staphylococcus aureus ATCC 25923 at 1000 ug/ml after 48 hrs by filter paper disc method. Type of assay: functional. The note with it: ATCC 25923, 48 h, read-out: IZ.
A further assay relates to Streptococcus pneumoniae. Kind of assay: Antibacterial activity against Streptococcus pneumoniae at 1000 ug/ml after 48 hrs by filter paper disc method. The note with it: read-out: IZ. In kind it is functional.
A short description of assay [7]: Antioxidant activity assessed as inhibition of superoxide anion radical formation after 5 mins in presence of PMS and NADH by nitroblue tetrazolium method relative to control. In kind it is functional.
A further assay concerns Aspergillus niger. Kind of assay: Antifungal activity against Aspergillus niger at 1000 ug/ml after 48 hrs by filter paper disc method. In kind it is functional. The note with it: read-out: IZ.

`O=C(CC(=O)C(F)(F)F)c1cccs1`: the Activity in [1] stood at 102%.
On to `O=C(NNc1ccc(F)cc1)Nc1sc2ccccc2c1Cl`, for which the zone of inhibition at 40 µg/mL in the assay on Staphylococcus aureus [2] was in the range of 15 to 16 mm.
For orientation: MIC means the lowest concentration that inhibits growth of the organism. With `O=C(Nn1c(-c2ccccc2[N+](=O)[O-])nc2ccccc2c1=O)c1sc2ccccc2c1Cl`, the MIC in [3] worked out at 12.5 µg/mL (≈ 26.2 µM).
One may read the IC50 as the concentration that gives 50% inhibition. With `NNC1=Nc2sc3c(c2C(=O)C1C(=O)c1ccccc1)CCCC3` (stereo not drawn), the IC50 worked out at 20 nM with NCI-H460, 10 nM in the assay on SF-268 and 30 nM in the assay with MCF7.
At Tubulin, `COc1ccc2c(C(O)c3ccc(OC)c(O)c3)c(-c3cc(OC)c(OC)c(OC)c3)sc2c1` (stereo not drawn) gave an IC50 of 6.1 µM.
In the case of `COc1ccccc1Nc1nnc(NC(=O)c2cc3cc(Oc4ccccc4)ccc3s2)s1`, the MIC in assay [3] is > 6.25 µg/mL. The “growth inhibition (GI)” value in assay [4] amounted to 60%.
In the case of `Clc1c(-c2nnc(CNc3ccccc3)o2)sc2ccccc12`, the zone of inhibition at 1000 µg/mL in the assay with Bacillus spizizenii was 15 mm.
The inhibition is the drop in the measured response relative to a control, in per cent. As to `COC1=C(Nc2sc3c(c2C(N)=O)CCCC3)C(=O)c2ccccc2C1=O`, the inhibition in [5] is 96%.
With `Cc1ccc(-n2c(S)nnc2NC(=O)c2sc3ccc(Cl)cc3c2Cl)cc1`, the minimal inhibitory concentration (MIC) in assay [3] was > 6.25 µg/mL. Also, the “growth inhibition (GI)” value in assay [4] stood at 64%.
Take `COc1ccc(-c2sc3cc4c(cc3c2C(=O)c2cc(OC)c(OC)c(OC)c2)OCO4)cc1O`: 40 µM corresponded to half-maximal inhibition against Tubulin (IC50).
`C[S+]([O-])CC(=O)c1cc2ccccc2s1` (stereo not drawn): the Activity in assay [1] stood at 121%.
As to `Cc1cc2ccc(O)cc2n(NC(=O)c2sc3cc(F)ccc3c2N)c1=O`, the values for the zone of inhibition at 1000 µg/mL with Bacillus spizizenii, with Staphylococcus aureus [6] and in the assay on Streptococcus pneumoniae were 25 mm, 23 mm and 22 mm, respectively.
Regarding `CCOC(=O)c1c(NC(=O)/C(C#N)=C(/S)Nc2ccccc2)sc2c1CCCC2`, in assay [7], the inhibition is 57.1%.
Consider `CCOC(=O)c1c(/N=C/n2nc(N)cc2O)sc2c1CCCC2`, for which the 50% inhibitory concentration (IC50) with NCI-H460 is 20 nM; in the assay with SF-268, 50 nM; in the assay with MCF7, 10 nM.
`N#Cc1c(/N=C/c2ccccc2)sc2c1CCCC2`: the IC50 was found to be 10 nM in the assay on NCI-H460, 20 nM with SF-268 and 20 nM in the assay with MCF7.
For `COc1ccc(Nc2nnc(NC(=O)c3cc4cc(Oc5ccccc5)ccc4s3)s2)cc1`, in [3], the minimal inhibitory concentration (MIC) is > 6.25 µg/mL. The “growth inhibition (GI)” value in [4] worked out at 90%.
`CCOC(=N)n1cnc2c(sc3cc(F)ccc32)c1=O`: the zone of inhibition at 1000 µg/mL in the assay on Bacillus spizizenii was 24 mm; with Streptococcus pneumoniae it was 25 mm. The zone of inhibition at 40 µg/mL with Staphylococcus aureus [2] came out at 25 mm.
As for `O=C(Nn1c(-c2ccccc2Cl)nc2ccccc2c1=O)c1sc2ccccc2c1Cl`, in [3], the lowest concentration to inhibit growth (MIC) was 6.25 µg/mL (≈ 13.4 µM).
Take `N=C1c2c(sc3c2CCCC3)N=C(SCC(=O)c2ccccc2)C1C(=O)c1ccccc1` (stereo not drawn): the half-inhibitory concentration (IC50) turned out to be 20 nM with NCI-H460, 10 nM in the assay with SF-268 and 10 nM with MCF7.
Take `O=C(Nc1ccc(C2=NN(c3ccc(F)cc3)C(c3ccccc3)C2)cc1)c1sc2ccccc2c1Cl` (stereo not drawn): the zone of inhibition at 1000 µg/mL in the assay on Bacillus spizizenii was 16 mm.
Take `N#Cc1c(/N=C/C2C(N)=NN=C2O)sc2c1CCCC2` (stereo not drawn): the IC50 stood at 10 nM in the assay on NCI-H460, 20 nM in the assay with SF-268 and 20 nM with MCF7.
In the case of `CCOC(=O)C1=C(NNC2=C(O)C(=O)c3ccccc3C2=O)SC2CCCCC12` (stereo not drawn), the inhibition in assay [5] amounted to 98.9%.
As for `O=C(c1ccsc1)c1cccs1`, the Activity in assay [1] was 114%.
As to `COc1ccc(NC(=O)Nc2sc3ccccc3c2Cl)cc1`, in the assay with Staphylococcus aureus [2], the zone of inhibition at 40 µg/mL was 15 to 16 mm.
Consider `N#Cc1c(/N=C/n2nc(N)cc2O)sc2c1CCCC2`, for which the IC50 in the assay on NCI-H460 turned out to be 80 nM; in the assay on SF-268, 60 nM; in the assay on MCF7, 20 nM.
On to `COc1cc(OC)c2ccc(=O)n(NC(=O)c3sc4cc(F)ccc4c3N)c2c1`, for which the values for the zone of inhibition at 1000 µg/mL with Bacillus spizizenii, in the assay with Aspergillus niger and in the assay with Streptococcus pneumoniae were 23 mm, 26 mm and 20 mm, respectively. In addition, the zone of inhibition at 40 µg/mL with Staphylococcus aureus [2] was determined as 24 mm.
